Laboratory results reported in patent US20120264735A1 (priority 2009, published 2012).

molecular target: T1, c-Met kinase (recombinant c-Met) (Homo sapiens, UniProt P08581); test: In vitro kinase assay I (homogeneous time-resolved fluorescence tyrosine kinase assay); assay type: biochemical
T1 construct: 0.27 nM recombinant c-Met
Method in brief: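 Biotinylated peptide (0.5 μM) phosphorylated by 0.2 nM recombinant c-Met with 50 μM MgATP, 60 min at room temperature, pH 7.4, 5% DMSO. EDTA stop; HTRF read with Eu-anti-phosphotyrosine antibody and streptavidin-APC. IC50 from 4-parameter logistic fit.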

T1 sequence (P08581 25-1390): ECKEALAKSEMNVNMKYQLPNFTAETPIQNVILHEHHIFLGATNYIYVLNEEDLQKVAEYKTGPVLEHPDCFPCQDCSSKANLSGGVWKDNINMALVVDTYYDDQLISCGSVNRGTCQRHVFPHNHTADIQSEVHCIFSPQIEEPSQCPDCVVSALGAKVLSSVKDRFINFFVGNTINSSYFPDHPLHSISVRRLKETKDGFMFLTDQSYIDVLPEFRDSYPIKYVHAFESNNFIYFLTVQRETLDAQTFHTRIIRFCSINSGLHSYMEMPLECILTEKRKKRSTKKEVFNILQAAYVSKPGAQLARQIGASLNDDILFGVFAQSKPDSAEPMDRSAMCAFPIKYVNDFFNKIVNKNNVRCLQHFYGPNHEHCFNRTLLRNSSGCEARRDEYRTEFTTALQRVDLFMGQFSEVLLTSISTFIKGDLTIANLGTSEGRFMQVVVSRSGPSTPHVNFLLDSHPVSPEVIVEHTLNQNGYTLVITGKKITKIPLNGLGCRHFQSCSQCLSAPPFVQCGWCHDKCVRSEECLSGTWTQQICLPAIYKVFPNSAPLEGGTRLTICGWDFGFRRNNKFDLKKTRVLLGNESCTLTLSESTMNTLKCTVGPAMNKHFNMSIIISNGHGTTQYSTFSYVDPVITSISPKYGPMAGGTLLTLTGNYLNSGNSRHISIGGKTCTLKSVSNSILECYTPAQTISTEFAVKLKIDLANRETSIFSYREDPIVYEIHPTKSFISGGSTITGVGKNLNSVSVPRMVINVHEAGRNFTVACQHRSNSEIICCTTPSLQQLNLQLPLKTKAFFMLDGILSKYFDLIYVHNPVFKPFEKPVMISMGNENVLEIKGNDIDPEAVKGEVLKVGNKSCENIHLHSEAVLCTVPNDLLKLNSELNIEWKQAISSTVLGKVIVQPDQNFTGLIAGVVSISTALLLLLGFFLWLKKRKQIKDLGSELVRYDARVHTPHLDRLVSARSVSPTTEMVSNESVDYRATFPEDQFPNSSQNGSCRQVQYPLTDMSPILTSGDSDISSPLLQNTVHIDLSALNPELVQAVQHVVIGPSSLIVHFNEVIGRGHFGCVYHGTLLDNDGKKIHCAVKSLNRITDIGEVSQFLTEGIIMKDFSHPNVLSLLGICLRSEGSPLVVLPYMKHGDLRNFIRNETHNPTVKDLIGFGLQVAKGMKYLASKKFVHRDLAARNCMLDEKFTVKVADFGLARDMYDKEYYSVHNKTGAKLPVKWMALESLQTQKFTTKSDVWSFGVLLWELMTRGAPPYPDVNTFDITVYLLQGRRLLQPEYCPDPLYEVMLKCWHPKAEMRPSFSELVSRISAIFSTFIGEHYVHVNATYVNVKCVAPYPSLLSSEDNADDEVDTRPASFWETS

SMILES	IC50
Cn1cc(-n2ccc(=O)c(Cc3cccc(-c4noc(CC5CCOCC5)n4)c3)n2)cn1 [Example 746]	100 to 1000 nM
O=C(Nc1cccc(Cc2nn(-c3cc(F)c(F)c(F)c3)ccc2=O)c1)OCCN1CCC(C(=O)O)CC1 [Example 512, 1-(2-{[(3-{[4-oxo-1-(3,4,5-trifluorophenyl)-1,4-dihydropyridazin-3-yl]methyl}phenyl)carbamoyl]oxy}ethyl)piperidine-4-carboxylic acid]	< 100 nM
CCOC(=O)Nc1cccc(Cc2nn(-c3cnn(CCO)c3)ccc2=O)c1 [Example 643, Ethyl [3-({1-[1-(2-hydroxyethyl)-1H-pyrazol-4-yl]-4-oxo-1,4-dihydropyridazin-3-yl}methyl)phenyl]carbamate]	< 100 nM
CCNC(=O)c1cnc(-c2cccc(Cc3nn(-c4cnn(C)c4)ccc3=O)c2)nc1 [Example 484, N-ethyl-2-(3-{[1-(1-methyl-1H-pyrazol-4-yl)-4-oxo-1,4-dihydro-pyridazin-3-yl]methyl}phenyl)pyrimidine-5-carboxamide]	< 100 nM
CC(C)CNC(=O)Nc1cccc(Cc2nn(-c3cnn(C)c3)ccc2=O)c1 [Example 491, 1-(2-methylpropyl)-3-(3-{[1-(1-methyl-1H-pyrazol-4-yl)-4-oxo-1,4-dihydropyridazin-3-yl]methyl}phenyl)urea]	< 100 nM
CCOC(=O)Nc1cccc(Cc2nn(-c3cnn(CC4CCOCC4)c3)ccc2=O)c1 [Example 100, ethyl [3-({4-oxo-1-[1-(tetrahydro-2H-pyran-4-ylmethyl)-1H-pyrazol-4-yl]-1,4-dihydropyridazin-3-yl}methyl)phenyl]carbamate]	100 to 1000 nM
Cn1cc(-n2ccc(=O)c(Cc3cccc(NC(=O)OCC(F)CN)c3)n2)cn1 (racemic) [Example 621, rac-3-amino-2-fluoropropyl (3-{[1-(1-methyl-1H-pyrazol-4-yl)-4-oxo-1,4-dihydropyridazin-3-yl]methyl}phenyl)carbamate]	< 100 nM
CCOc1ccc(-c2cccc(Cc3nn(-c4cnn(C)c4)ccc3=O)c2)nc1 [Example 677]	< 100 nM
Cn1cc(-n2ccc(=O)c(Cc3cccc(-c4ncc(N5CCCCC5)cn4)c3)n2)cn1 [Example 441, 1-(1-methyl-1H-pyrazol-4-yl)-3-[3-(5-piperidin-1-ylpyrimidin-2-yl)benzyl]pyridazin-4(1H)-one]	< 100 nM
CCn1cc(-n2ccc(=O)c(Cc3cccc(-c4ncc(OCC5CCCO5)cn4)c3)n2)cn1 (racemic) [Example 310, rac-1-(1-ethyl-1H-pyrazol-4-yl)-3-{3-[5-(tetrahydrofaran-2-ylmethoxy)pyrimidin-2-yl]benzyl}pyridazin-4(1H)-one]	< 100 nM
CN(C)C/C=C/c1cnc(-c2cccc(Cc3nn(-c4cnn(C)c4)ccc3=O)c2)nc1 [Example 403, 3-(3-{5-[(1E)-3-(dimethylamino)prop-1-en-1-yl]pyrimidin-2-yl}benzyl)-1-(1-methyl-1H-pyrazol-4-yl)pyridazin-4(1H)-one]	< 100 nM
CCCn1cnc(-c2cccc(C(C)c3nn(-c4cnn(CC)c4)ccc3=O)c2)n1 (single isomer, unassigned) [Example 689]	< 100 nM
CCCn1cnc(-c2cccc(Cc3nn(-c4cccc(C(N)=O)c4)ccc3=O)c2)n1 [Example 735, 3-{4-oxo-3-[3-(1-propyl-1H-1,2,4-triazol-3-yl)benzyl]pyridazin-1(4H)-yl}benzamide]	100 to 1000 nM
O=c1ccn(-c2cc(F)cc(F)c2)nc1Cc1cccc(-c2ncc(O)cn2)c1 [compound 189, 1-(3,5-difluorophenyl)-3-[3-(5-hydroxypyrimidin-2-yl)benzyl]pyridazin-4(1H)-one]	100 to 1000 nM
CC1CC1COC(=O)Nc1cccc(Cc2nn(-c3cnn(C)c3)ccc2=O)c1 (mixture of isomers) [Example 574, (2-methylcyclopropyl)methyl (3-{[1-(1-methyl-1H-pyrazol-4-yl)-4-oxo-1,4-dihydropyridazin-3-yl]methyl}phenyl)carbamate]	< 100 nM
Cn1cc(-n2ccc(=O)c(Cc3cccc(-c4ncc(OCC5CC5)cn4)c3)n2)cn1 [Example 278, 3-{3-[5-(cyclopropylmethoxy)pyrimidin-2-yl]benzyl}-1-(1-methyl-1H-pyrazol-4-yl)pyridazin-4(1H)-one]	< 100 nM
CCOc1cnc(-c2cccc(Cc3nn(-c4ccc(C#N)c(F)c4)ccc3=O)c2)nc1 [Example 148, 4-{3-[3-(5-ethoxypyrimidin-2-yl)benzyl]-4-oxopyridazin-1(4H)-yl}-2-fluorobenzonitrile]	< 100 nM
CCn1cc(-n2ccc(=O)c(Cc3cccc(-c4ncc(OC(C)C)cn4)c3)n2)cn1 [Example 305, 1-(1-ethyl-1H-pyrazol-4-yl)-3-[3-(5-isopropoxypyrimidin-2-yl)benzyl]pyridazin-4(1H)-one]	< 100 nM

SMILES	IC50
CCOc1cnc(-c2cccc(Sc3nn(-c4cnn(C)c4)ccc3=O)c2)nc1 [Example 756, 3-{[3-(5-Ethoxypyrimidin-2-yl)phenyl]sulfanyl}-1-(1-methyl-1H-pyrazol-4-yl)pyridazin-4(1H)-one]	1000 to 3000 nM
CCOc1cnc(-c2cccc(C(C)c3nn(-c4cnn(CCO)c4)ccc3=O)c2)nc1 (single isomer, unassigned) [Example 256, 3-{(1R or S)-1-[3-(5-ethoxypyrimidin-2-yl)phenyl]ethyl}-1-[1-(2-hydroxyethyl)-1H-pyrazol-4-yl]pyridazin-4(1H)-one]	< 100 nM
CC(c1cccc(-c2ncc(-c3cnn(C)c3)cn2)c1)c1nn(-c2ccc(F)c(F)c2)ccc1=O (single isomer, unassigned) [Example 238, 1-(3,4-difluorophenyl)-3-[(1S or R)-1-{3-[5-(1-methyl-1H-pyrazol-4-yl)pyrimidin-2-yl]phenyl}ethyl]pyridazin-4(1H)-one]	100 to 1000 nM
COCCOC(=O)Nc1cccc(Cc2nn(-c3ccc(C#N)cc3)ccc2=O)c1 [Example 508, 2-methoxyethyl (3-{[1-(4-cyanophenyl)-4-oxo-1,4-dihydropyridazin-3-yl]methyl}phenyl)carbamate]	< 100 nM
CC(c1cccc(-c2ncc(F)c(C3CC3)n2)c1)c1nn(-c2cnn(C)c2)ccc1=O (single isomer, unassigned) [Example 692, 3-{(1R or S)-1-[3-(4-cyclopropyl-5-fluoropyrimidin-2-yl)phenyl]ethyl}-1-(1-methyl-1H-pyrazol-4-yl)pyridazin-4(1H)-one]	< 100 nM
COc1cnc(-c2cccc(Cc3nn(-c4cnn(C)c4)ccc3=O)c2)nc1 [Example 5, 3-[3-(5-Methoxypyrimidin-2-yl)benzyl]-1-(1-methyl-1H-pyrazol-4-yl)pyridazin-4(1H)-one]	< 100 nM
Cn1cc(-n2ccc(=O)c(Cc3cccc(NC(=O)OCC(=O)O)c3)n2)cn1 [Example 629, ({[(3-{[1-(1-Methyl-1H-pyrazol-4-yl)-4-oxo-1,4-dihydropyridazin-3-yl]methyl}phenyl)amino]carbonyl}oxy)acetic acid]	1000 to 3000 nM
Cn1cc(-n2ccc(=O)c(Cc3cccc(-c4ncc(NCC5CCOC5)cn4)c3)n2)cn1 (racemic) [Example 455, rac-1-(1-methyl-1H-pyrazol-4-yl)-3-(3-{5-[(tetrahydro-furan-3-ylmethyl)amino]pyrimidin-2-yl}benzyl)pyridazin-4(1H)-one]	< 100 nM
Cn1cc(-n2ccc(=O)c(Cc3cccc(-c4ncc(/C=C/C(C)(C)O)cn4)c3)n2)cn1 [Example 401, 3-(3-{5-[(1E)-3-hydroxy-3-methylbut-1-en-1-yl]pyrimidin-2-yl}benzyl)-1-(1-methyl-1H-pyrazol-4-yl)pyridazin-4(1H)-one]	< 100 nM
O=C(Nc1cccc(Cc2nn(-c3ccc(F)c(F)c3)ccc2=O)c1)OCCN1CCOCC1 [Example 22, 2-morpholin-4-ylethyl (3-{[1-(3,4-difluorophenyl)-4-oxo-1,4-dihydropyridazin-3-yl]methyl}phenyl)carbamate]	< 100 nM
CN1CCN(c2cnc(-c3cccc(Cc4nn(-c5cnn(C)c5)ccc4=O)c3)nc2)CC1 [Example 467, 3-{3-[5-(4-methyl-piperazin-1-yl)pyrimidin-2-yl]benzyl}-1-(1-methyl-1H-pyrazol-4-yl)pyridazin-4(1H)-one]	< 100 nM
Cn1cc(-n2ccc(=O)c(Cc3cccc(NC(=O)Cc4ccccc4)c3)n2)cn1 [Example 632, N-(3-{[1-(1-methyl-1H-pyrazol-4-yl)-4-oxo-1,4-dihydropyridazin-3-yl]methyl}phenyl)-2-phenylacetamide]	1000 to 3000 nM
O=c1ccn(-c2cn[nH]c2)nc1Cc1cccc(-c2ncc(O)cn2)c1 [Example 194, 3-[3-(5-Hydroxypyrimidin-2-yl)benzyl]-1-(1H-pyrazol-4-yl)pyridazin-4(1H)-one]	100 to 1000 nM
CCOCCOc1cnc(-c2cccc(Cc3nn(-c4cc(F)c(F)c(F)c4)ccc3=O)c2)nc1 [Example 325, 3-{3-[5-(2-ethoxyethoxy)pyrimidin-2-yl]benzyl}-1-(3,4,5-trifluorophenyl)pyridazin-4(1H)-one]	< 100 nM
O=c1ccn(-c2cc(F)c(F)c(F)c2)nc1Cc1ccc2ncnn2c1 [Example 10, 3-([1,2,4]triazolo[1,5-a]pyridin-6-ylmethyl)-1-(3,4,5-trifluorophenyl)pyridazin-4(1H)-one]	1000 to 3000 nM
N#Cc1ccc(-n2ccc(=O)c(Cc3cccc(NC(=O)OCC4CCOC4)c3)n2)cc1 (racemic) [Example 139, rac-tetrahydrofuran-3-ylmethyl (3-{[1-(4-cyanophenyl)-4-oxo-1,4-dihydropyridazin-3-yl]methyl}phenyl)carbamate]	< 100 nM
CCn1cc(-n2ccc(=O)c(C(C)c3cccc(-c4ncc(OCCOC)cn4)c3)n2)cn1 (single isomer, unassigned) [Example 247, 1-(1-ethyl-1H-pyrazol-4-yl)-3-((1S or R)-1-{3-[5-(2-methoxyethoxy)primidin-2-yl]phenyl}ethyl)pyridazin-4(1H)-one]	100 to 1000 nM
CC(=O)Nc1cccc(Cc2nn(-c3ccccc3)ccc2=O)c1 [Example 631, N-{3-[(4-Oxo-1-phenyl-1,4-dihydropyridazin-3-yl)methyl]phenyl}acetamide]	1000 to 3000 nM
